Test results from patent US20080188837A1, “Local Delivery of Drugs or Substances Using Electronic Permeability Increase” (priority 2004, published 2008).

How the values were obtained:
Assay type in all cases: in vitro ADME, Wistar rat
[1] = system: upper jejunum tissue segments; experiment: In vitro permeation of octreotide through rat upper jejunum in a diffusion chamber, with and without LITV pulses (FIG. 24); conditions: 12 Hz monophasic pulses, 1 millisecond, 3 mA, vs control chamber without electrical stimulation, 1 mg/ml donor, 90-minute period
Excerpt: The distance between electrode centers was 10 mm.

[2] = system: jejunal tissue samples (upper jejunum); experiment: In vitro permeation of octreotide via jejunal tissue in diffusion chamber 500 under LITV pulses (FIGS. 27-36); conditions: for octreotide permeation vs control group: FIG. 29; for permeation efficiency, effect of electrode material: FIG. 34
Procedure: (§1) The samples were analyzed for their content of octreotide by HPLC-UV 205 nm spectroscopy (Hewlett-Packard 1100). […] A 100×3 mm C18 column was used.

[3] = system: proximal ileum tissue samples; experiment: In vitro permeation of octreotide via proximal ileum tissue in diffusion chamber 500 under LITV pulses (FIG. 36); conditions: 18 Hz, 3 mA, 1 millisecond, at 7 minutes, vs non-stimulated control
Procedure: as §1

[4] = system: distal ileum tissue samples; experiment: In vitro permeation of octreotide via distal ileum tissue in diffusion chamber 500 under LITV pulses (FIG. 36); conditions: 18 Hz, 3 mA, 1 millisecond, at 7 minutes, vs non-stimulated control
Procedure: as §1

## C[C@@H](O)[C@@H]1NC(=O)[C@H](CCCCN)NC(=O)[C@@H](Cc2c[nH]c3ccccc23)NC(=O)[C@H](Cc2ccccc2)NC(=O)[C@@H](NC(=O)[C@H](N)Cc2ccccc2)CSSC[C@@H](C(=O)N[C@H](CO)[C@@H](C)O)NC1=O [octreotide, octreotide acetate]
[1]
  octreotide permeation into acceptor cell: substantially greater increase in octreotide permeation
[2]; 1 pulse per cycle among 1, 2, 3 pulses per cycle, 18 Hz, 3 mA, 1 millisecond, FIG. 31
  permeation efficiency, effect of pulse cycle: greatest permeation efficiency
[2]; 18 Hz among 5, 12, 18, 24, 30, 60 Hz, 1 millisecond, 3 mA, at 30 minutes, FIG. 28
  transport enhancement ratio (ER), effect of pulse frequency: greatest enhancement ratio
[2]; continuous application of pulses vs cessation after 10 minutes (n=1), 18 Hz, 3 mA, 1 millisecond, normalized to control group of FIG. 27, FIG. 35
  permeation efficiency, effect of cessation of pulse application: substantially greater permeation efficiency
[2]; electrode distance 0.5 mm (n=2) vs 3 mm (n=6), 18 Hz, 3 mA, 1 millisecond, at 15 minutes, FIG. 32
  magnitude of permeation efficiency, effect of electrode distance from jejunal tissue: greater at 0.5 mm than at 3 mm
[2]; jejunal tissue, 18 Hz, 3 mA, 1 millisecond, at 7 minutes, vs non-stimulated control, FIG. 36
  permeation efficiency, effect of pulse application by intestinal region: greatest effect of pulse application
[2]; number of pulses per cycle increased from 1 to 2 to 3 (5-millisecond intervals), 18 Hz, 3 mA, 1 millisecond, FIG. 31
  permeation efficiency, trend with number of pulses per cycle: the permeation efficiency decreased
[2]; pulse duration 1 millisecond among 0.2, 0.5, 1, 3 milliseconds, 18 Hz, 3 mA, at 15 minutes, FIG. 30
  transport enhancement ratio (ER), effect of pulse duration: greatest enhancement ratio
[2]; pulses 1 millisecond, 18 Hz, 3 mA (n=6) vs non-stimulated control group (n=3), FIG. 27
  octreotide permeation (permeation efficiency): substantially enhanced octreotide permeation
[2]; pulses at 5 Hz (n=1), 1 millisecond, 3 mA
  octreotide permeation vs control group: did not yield a higher octreotide permeation
[2]; pulses at 60 Hz (n=1), 1 millisecond, 3 mA
  octreotide permeation vs control group: did not yield a higher octreotide permeation
[2]; silver chloride (AgCl) electrodes (n=2), 18 Hz, 3 mA, 1 millisecond
  permeation efficiency, effect of electrode material: did not increase permeation efficiency
[2]; stainless steel (SS316L) electrodes (n=6), 18 Hz, 3 mA, 1 millisecond
  permeation efficiency, effect of electrode material: substantially increased permeation efficiency
[2]; titanium nitride (TN) electrodes (n=3), 18 Hz, 3 mA, 1 millisecond
  permeation efficiency, effect of electrode material: did not increase permeation efficiency
[2]; without divider 528, electrodes not insulated from each other (n=1), 18 Hz, 3 mA, 1 millisecond, FIG. 33
  permeation efficiency, effect of electrode insulation: did not increase permeation efficiency
[3]
  permeation efficiency, effect of pulse application by intestinal region: increased permeation efficiency
[4]
  permeation efficiency, effect of pulse application by intestinal region: positive but less pronounced effect
